Source: US20240269306A1, “B7H4-TARGETED ANTIBODY-DRUG CONJUGATES AND METHODS OF USE THEREOF” (Mersana Therapeutics, Inc., priority 2021, published 2024)
Positions count from the first letter of the chain named. Values joined by “and” are separate entries in the source; they are usually repeats but may differ in a detail not shown here. Equal values may be shown once.

Assays:
[1] = tested on: STING pathway in THP1-Dual cells co-cultured with MX-1 cancer cells; assay: STING activation, cancer cell/THP1-IRF3-Luciferase reporter cell co-culture assay (Example 36); settings: 24 hours, concentrations based on payload, read-out: THP1-Dual cells/MX-1 co-cultures EC50
Experimental: The induction of the STING pathway in immune cells by B7-H4-targeted STING agonist conjugates was evaluated by a cancer cell/THP1-IRF3-Luciferase reporter cell co-culture assay. MX-1 cells were seeded in 96-well CellBind surface tissue culture plates (17,000 cells/well) and allowed to attach for 4 hours in RPMI-1640 medium with 10% FBS and 1% penicillin/streptomycin. […] THP1-Dual™ Cells (InvivoGen) (50,000 cells) were then added to each well and the incubation continued for 24 hours at 37° C. in a humidified atmosphere of 5% CO2. Cell culture supernatants (20 μL) from each incubated sample was added to resuspended QUANTI-Luc (InvivoGen) (50 μL) and the luminescent signal was measured immediately using a SpectraMax M5 plate reader (Molecular Devices). The EC50 values were determined from the dose response curve.

[2] = tested on: HEK-293-WT cells cocultured with CTV-labeled CD3+ T cells; assay: T-cell suppression coculture assay with HEK-293-WT cells (Example 27); format: cell-based, human; settings: HEK-293-WT coculture, antibody 50 nM, 4 day
Experimental: (§1) Next day, the media was removed and replaced with T cell media (Iscove's Modified Dulbecco's Medium with 10% FBS and 5% penicillin/streptomycin). […] Frozen human PBMCs (2.5×10^7 cells) were thawed and enriched for CD3+ T cells using Easy Step™ human T cell isolation kit (StemCell Technologies). CD3+ T cells were labeled with CellTrace™ Violet cell proliferation kit (CTV; ThermoFisher Scientific) and adjusted to 2×10^6 cells/mL. CTV-labeled T cells (1×10^5) were added to test article-treated HEK-293-WT or HEK-293-B7-H4 cells, stimulated with Immunocult™ Human CD3/CD28 T Cell Activator (StemCell Technologies), and incubated at 37° C. in 5% CO2. After 4 day of coculture of HEK-293-WT or HEK-293-B7-H4 with CTV-labeled T cells, T cell proliferation was assessed by the dilution of CTV-labeled T cells using flow cytometry. Cocultured cells (CTV-labeled T cells and HEK-293-WT/HEK-293-B7-H4 cells) from each group were transferred to a U-bottom 96-well plate, washed with PBS, stained with live/dead Fixable Aqua dead cell staining dye (ThermoFisher Scientific), and then additionally stained with fluorophore conjugated target specific or isotype control antibodies (FITC anti-human CD45, PE/Cy7 anti-human CD4, PE anti-human CD8). Cells were fixed and surface expression of the proteins of interest was determined by flow cytometry analysis on a MACSQuant flow cytometer. Data analysis was performed by FlowJo software using the following hierarchical flow: 1) single gate, 2) live cells, 3) CD45+ cells, and 4) diluted CTV (compared to unstimulated T cells). Percentage of proliferating CD4+ or CD8+ T cell were calculated using CD4+ combined with diluted CTV and CD8+ combined with diluted CTV, respectively. Data represent the mean (±standard deviation) of triplicate wells for each test article. Table 6 gives the population (%) of live cells, CD45+, proliferating CD4+ T cells, and proliferating CD8+ T cells for each condition.

[3] = tested on: HEK-293-B7-H4 cells cocultured with CTV-labeled CD3+ T cells; assay: T-cell suppression coculture assay with HEK-293-B7-H4 cells (Example 27); format: cell-based, human; settings: HEK-293-B7-H4 coculture; antibody 50 nM; 4 day; mean ± SD; two lines of values
Experimental: as §1

[4] = molecular target: T1, human B7-H4 (Homo sapiens, UniProt Q7Z7D3); assay: ELISA binding of variant B7-H4 cytotoxic drug conjugates to B7-H4 protein (Example 28); settings: Table 7
T1 construct: purchased R&D Systems 6576-B7-050
T1 sequence (Q7Z7D3 25-282): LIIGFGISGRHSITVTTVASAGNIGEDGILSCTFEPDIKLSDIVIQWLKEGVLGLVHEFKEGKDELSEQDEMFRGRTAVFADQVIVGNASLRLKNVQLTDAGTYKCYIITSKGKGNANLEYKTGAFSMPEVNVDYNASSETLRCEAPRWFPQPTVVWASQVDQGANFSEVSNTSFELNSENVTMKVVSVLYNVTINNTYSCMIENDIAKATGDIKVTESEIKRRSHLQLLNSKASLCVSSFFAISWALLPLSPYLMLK
Experimental: (§2) Recombinant human B7-H4 protein (R&D Systems #6576-B7-050) was coated onto the surface of each well of a 96-well plate by incubation with the peptide (1 μg/mL in PBS), overnight at 4° C. The wells were then blocked by incubation with BSA (5% in PBS, containing 0.1% Tween 20 (PBST)) for 1 hour at room temperature. […] The unbound test article was removed by washing with PBST (3×). A secondary anti-human IgG conjugated to HRP (0.16 μg/mL in PBST) was incubated in each well for 1 hour. The unbound secondary antibody was removed by washing with PBST (3×). The HRP substrate, TMB, was added to each well and incubated until a blue color was visible. The reaction was quenched by the addition of sulfuric acid (0.2 N, 100 μL). […] The values were plotted using GraphPad Prism software. EC50 values were determined by four-parameter curve fitting.

[5] = molecular target: T1, human B7-H4; assay: ELISA binding of XMT-1603 and XMT-1604 cytotoxic drug conjugates to human B7-H4 protein (Example 29); settings: Table 8
Experimental: as §2

[6] = molecular target: T1, human B7-H4; assay: ELISA binding to human B7-H4 (Example 30); settings: mean of two studies
Experimental: as §2
(§3) Proteins used in these studies were: human B7-H4 (R&D Systems; 6576-B7-050), monkey B7-H4 (Creative Biomart; VTCN1-1519R), rat (R&D Systems 10085-B7), and mouse (Creative Biomart; VTCN1-1519R).

[7] = molecular target: monkey B7-H4; assay: ELISA binding to monkey B7-H4 (Example 30); settings: mean of two studies
Experimental: as §2, §3

[8] = molecular target: T2, rat B7-H4 (Rattus norvegicus, UniProt Q501W4); assay: ELISA binding to rat B7-H4 (Example 30); settings: mean of two studies
T2 construct: purchased R&D Systems 10085-B7
T2 sequence (Q501W4 25-257): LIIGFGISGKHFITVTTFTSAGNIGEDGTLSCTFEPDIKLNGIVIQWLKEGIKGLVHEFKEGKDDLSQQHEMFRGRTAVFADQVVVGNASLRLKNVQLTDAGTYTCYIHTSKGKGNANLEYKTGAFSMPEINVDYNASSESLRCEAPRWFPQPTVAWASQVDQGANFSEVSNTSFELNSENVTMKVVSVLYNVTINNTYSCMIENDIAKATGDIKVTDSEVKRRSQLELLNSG
Experimental: as §2, §3

[9] = molecular target: T3, mouse B7-H4 (Mus musculus, UniProt Q7TSP5); assay: ELISA binding to mouse B7-H4 (Example 30); settings: mean of two studies
T3 construct: purchased Creative Biomart VTCN1-1519R
T3 sequence (Q7TSP5 25-257): T2 sequence (Q501W4 25-257) with H109R, E228Q
Experimental: as §2, §3

[10] = tested on: MX-1 cells; assay: Cell surface binding by FACS, MX-1 cells (Example 32); parameters: species or system human; settings: mean of two replicate experiments
Experimental: (§4) MX-1 cells were grown in DMEM:F12K (Life Technologies) with 10% FBS (Life Technologies) and 1% penicillin/streptomycin (Life Technologies). […] For staining, cells were detached by treatment with Accutase cell detachment solution (Innovative Cell Technologies). The detached cells were triturated in media, and plated in 96 well U-bottom plates, at a density of 50,000 cells in medium (75 μL). […] The cells were washed with ice cold PBS (3×), pelleted at 1,000×RCF between each wash step, and resuspended in RPMI-1640 with 2% goat serum (100 μL) and a secondary fluorescently labeled antibody, Alexa Fluor® 647-labelled goat anti-human IgG (5 μg/mL, Life Technologies) for 1 hour on ice. The cells were washed with ice cold PBS (3×) and resuspended in ice cold PBS with 1% paraformaldehyde (100 μL). The fluorescence per cell was determined by analyzing 5,000 cells for each treatment on the flow cytometer. The median fluorescence value for each treatment was plotted, and EC50 values were calculated with Graphpad Prism software by four-parameter curve fitting.
(§5) HEK-293-B7-H4 cells were grown in EMEM (ATCC), 10% FBS, 1% penicillin/streptomycin, and 3 μg/ml puromycin (Life Technologies) and untransfected HEK-293 cells were grown in EMEM, 10% FBS, 1% penicillin/streptomycin. […] Results are mean values for two replicate experiments for each test article.

[11] = tested on: HEK-293 cells stably transfected with human B7-H4; assay: Cell surface binding by FACS, HEK-293-B7-H4 cells (Example 32); settings: mean of two replicate experiments
Experimental: as §4, §5

[12] = tested on: untransfected HEK-293 cells; assay: Cell surface binding by FACS, untransfected HEK-293 cells (Example 32); settings: mean of two replicate experiments
Experimental: as §4, §5

[13] = molecular target: T1, human B7-H4; assay: ELISA binding of STING agonist conjugates to recombinant human B7-H4 protein (Example 34); settings: Table 13
Experimental: as §2

[14] = tested on: MX-1 cells; assay: Cell surface binding of STING agonist conjugates by FACS, MX-1 cells (Example 35); parameters: species or system human; settings: Table 14
Experimental: as §4

Compound	EC50 [1] [nM]	% Population Live cells (gated on single) ([2]; mean ± SD of triplicate wells, two unexplained lines of values per population)	% Population CD45+ (gated on live cells) ([2]; mean ± SD, two lines of values)	% Population Proliferating CD4+ (gated on single/live cells/CD45+) ([2]; mean ± SD, two lines of values)	% Population Proliferating CD8+ (gated on single/live cells/CD45+) ([2]; mean ± SD, two lines of values)	% Population CD45+ (gated on live cells) [3]	% Population Live cells (gated on single) [3]	% Population Proliferating CD8+ (gated on single/live cells/CD45+) [3]	EC50 [4] [nM]	EC50 [5] [nM]	EC50 [6] [nM]	EC50 [7] [nM]	EC50 [8] [nM]	EC50 [9] [nM]	EC50 [10] [nM]	EC50 [11] [nM]	EC50 [12] [nM]	EC50 [13] [nM]	EC50 [14] [nM]
Cc1ccc2c(=O)c3cccc(CC(=O)O)c3oc2c1C [STING agonist]	> 100																		
Palivizumab		78.2 ± 0.4% and 85.6 ± 11.2%	69.0 ± 5.1% and 43.0 ± 11.0%	32.9 ± 2.6% and 22.4 ± 2.3%	9.5 ± 1.6% and 3.5 ± 0.8%	48.3 ± 4.1% and 50.1 ± 3.7%	80.1 ± 2.0% and 95.5 ± 2.8%	3.4 ± 0.5% and 1.1 ± 0.6%	> 100	> 100	> 100	> 100	> 100	> 100	> 100	> 100	> 100	> 100	> 200
